For one assay, the target named is PTGER2 (EP2) (Homo sapiens (Human), UniProt P43116). The experiment in a line: hEP2 b-arrestin assay (PathHunter HEK 293 PTGER2 b-arrestin cells). The note with it: antagonistic activity, beta-arrestin assay; read-out: hEP2 b-arr IC50. The class given is cell-based. The procedure: Plate is pre-incubated 15 minutes at 37° C. Then five microliters of PGE2 (final conc. 5 μM) are transferred into the assay plate. Plate is incubated 120 minutes at 37° C.
(each concentration is measured in duplicate)

A further assay addresses PTGER4 (EP4) (Homo sapiens (Human), UniProt P35408). The experiment in a line: cell-based.

In patent publication US11839613B2, “Pyrimidine derivatives as PGE2 receptor modulators” (IDORSIA PHARMACEUTICALS LTD, priority 2017, dated 2023) one finds IC50 data, which are given here for 29 compounds.

PTGER2 (EP2), sequence (P43116 whole entry): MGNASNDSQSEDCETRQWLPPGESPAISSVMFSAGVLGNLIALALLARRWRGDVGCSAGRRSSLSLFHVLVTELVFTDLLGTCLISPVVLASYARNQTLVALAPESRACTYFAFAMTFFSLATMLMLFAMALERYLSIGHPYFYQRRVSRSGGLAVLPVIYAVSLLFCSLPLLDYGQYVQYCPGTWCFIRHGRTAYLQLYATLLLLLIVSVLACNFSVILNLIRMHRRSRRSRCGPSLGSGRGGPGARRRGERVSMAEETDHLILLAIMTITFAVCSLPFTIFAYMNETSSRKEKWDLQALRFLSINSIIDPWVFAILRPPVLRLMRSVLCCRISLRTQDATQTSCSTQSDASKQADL
PTGER4 (EP4), sequence (P35408 whole entry): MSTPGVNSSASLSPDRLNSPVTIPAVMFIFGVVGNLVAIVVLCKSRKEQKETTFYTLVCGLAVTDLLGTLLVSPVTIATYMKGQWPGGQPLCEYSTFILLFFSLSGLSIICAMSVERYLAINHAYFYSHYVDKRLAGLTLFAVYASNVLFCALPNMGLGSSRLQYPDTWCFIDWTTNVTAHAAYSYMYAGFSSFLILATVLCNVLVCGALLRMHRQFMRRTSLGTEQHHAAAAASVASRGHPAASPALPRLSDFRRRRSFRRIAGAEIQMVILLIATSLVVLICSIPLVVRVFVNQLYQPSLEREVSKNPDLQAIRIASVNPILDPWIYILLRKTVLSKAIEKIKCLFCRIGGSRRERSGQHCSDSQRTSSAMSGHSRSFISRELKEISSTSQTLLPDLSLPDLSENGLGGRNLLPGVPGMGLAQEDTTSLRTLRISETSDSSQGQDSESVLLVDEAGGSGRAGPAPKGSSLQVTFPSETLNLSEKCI

Usually IC50 stands for the concentration that inhibits the measured activity by half. As for `COc1cc2ccccc2c(C)c1CCNc1cc(-c2ccc(CC(=O)O)c(OC(F)(F)F)c2)ncn1` [Example 500, (4-{6-[2-(3-Methoxy-1-methyl-naphthalen-2-yl)-ethylamino]-pyrimidin-4-yl}-2-trifluoromethoxy-phenyl)-acetic acid], the figures for the IC50 at PTGER2 (EP2) and against PTGER4 (EP4) were 0.088 µM and 0.099 µM, respectively.

As to `COc1c(CCNc2cc(-c3ccc(C(=O)O)c(SC)c3)ncn2)cc2ccsc2c1F` [Example 405, 4-{6-[2-(7-Fluoro-6-methoxy-benzo[b]thiophen-5-yl)-ethylamino]-pyrimidin-4-yl}-2-methylsulfanyl-benzoic acid], the values for the IC50 on PTGER2 (EP2) and at PTGER4 (EP4) were 0.009 µM and 0.079 µM, respectively.

For the compound `COc1cc(-c2cc(NCCc3ccc4sccc4c3F)ncn2)ccc1OCCC(=O)O` [Example 437, 3-(4-{6-[2-(4-Fluoro-benzo[b]thiophen-5-yl)-ethylamino]-pyrimidin-4-yl}-2-methoxy-phenoxy)-propionic acid], the IC50 on PTGER2 (EP2) stood at 0.104 µM; against PTGER4 (EP4), 0.041 µM.

In the case of `CCOc1cc(-c2cc(NCCc3cc4c(cc3OC(F)F)OCCO4)ncn2)sc1C(=O)O` [Example 433, 5-{6-[2-(7-Difluoromethoxy-2,3-dihydro-benzo[1,4]dioxin-6-yl)-ethylamino}-pyrimidin-4-yl}-3-ethoxy-thiophene-2-carboxylic acid], the IC50 worked out at 0.03 µM at PTGER2 (EP2) and 0.019 µM against PTGER4 (EP4).

With `CCOc1cc(-c2cc(NCCc3cc4ccsc4c(F)c3OC)ncn2)ccc1C(=O)O` [Example 404, 2-Ethoxy-4-{6-[2-(7-fluoro-6-methoxy-benzo[b]thiophen-5-yl)-ethylamino]-pyrimidin-4-yl}-benzoic acid], the IC50 on PTGER2 (EP2) came out at 0.02 µM; against PTGER4 (EP4) it was 0.08 µM.

On to `O=C(O)c1ccc(-c2cc(NCCc3ccc4sccc4c3F)ncn2)cc1OC1CCC1` [Example 366, 2-Cyclobutoxy-4-{6-[2-(4-fluoro-benzo[b]thiophen-5-yl)-ethylamino]-pyrimidin-4-yl}-benzoic acid], for which the results for the IC50 on PTGER2 (EP2) and against PTGER4 (EP4) were 0.084 µM and 0.119 µM, respectively.

Consider `CCOc1cc(-c2cc(NCCc3cc(F)c4sccc4c3)ncn2)ccc1C(=O)NC` [Example 462, 2-Ethoxy-4-{6-[2-(7-fluoro-benzo[b]thiophen-5-yl)-ethylamino]-pyrimidin-4-yl}-N-methyl-benzamide], for which the values for the IC50 at PTGER2 (EP2) and against PTGER4 (EP4) were 0.325 µM and 0.197 µM, respectively.

With `CCc1cc(-c2cc(NCCc3cc4c(cc3OC)OCCO4)ncn2)ccc1CC(=O)O` [Example 524, (2-Ethyl-4-{6-[2-(7-methoxy-2,3-dihydro-benzo[1,4]dioxin-6-yl)-ethylamino]-pyrimidin-4-yl}-phenyl)-acetic acid], the IC50 at PTGER2 (EP2) turned out to be 0.231 µM; on PTGER4 (EP4), 0.257 µM.

For the compound `CCCc1cc(-c2cc(NCCc3ccc4c(c3)OCCO4)ncn2)ccc1CC(=O)O` [Example 527, (4-{6-[2-(2,3-Dihydro-benzo[1,4]dioxin-6-yl)-ethylamino]-pyrimidin-4-yl}-2-propyl-phenyl)-acetic acid], the IC50 amounted to 0.892 µM on PTGER2 (EP2) and 0.337 µM against PTGER4 (EP4).

With `CCOc1cc(-c2cc(NCCc3ccc4sccc4c3F)ncn2)ccc1C(=O)O` [Example 365, 2-Ethoxy-4-{6-[2-(4-fluoro-benzo[b]thiophen-5-yl)-ethylamino]-pyrimidin-4-yl}-benzoic acid], the IC50 at PTGER2 (EP2) came out at 0.077 µM; on PTGER4 (EP4), 0.149 µM.

On to `O=C(O)C1Cc2cc(-c3cc(NCCc4ccc5sccc5c4)ncn3)ccc2O1` (racemic) [Example 474, rac-5-[6-(2-Benzo[b]thiophen-5-yl-ethylamino)-pyrimidin-4-yl]-2,3-dihydro-benzofuran-2-carboxylic acid], for which the IC50 at PTGER2 (EP2) turned out to be 0.272 µM; on PTGER4 (EP4), 0.914 µM.

Consider `CCc1cc(-c2cc(NCCc3c(OC)cc4ccccc4c3C)ncn2)ccc1C(=O)O` [Example 446, 2-Ethyl-4-{6-[2-(3-methoxy-1-methyl-naphthalen-2-yl)-ethylamino]-pyrimidin-4-yl}-benzoic acid], for which the IC50 came out at 0.032 µM at PTGER2 (EP2) and 0.108 µM against PTGER4 (EP4).

In the case of `COc1cc2c(c(C)c1CCNc1cc(-c3ccc(CC(=O)O)c(OC(F)(F)F)c3)ncn1)OCCO2` [Example 428, (4-{6-[2-(7-Methoxy-5-methyl-2,3-dihydro-benzo[1,4]dioxin-6-yl)-ethylamino]-pyrimidin-4-yl}-2-trifluoromethoxy-phenyl)-acetic acid], the IC50 is 0.007 µM on PTGER2 (EP2) and 0.041 µM against PTGER4 (EP4).

With `CCOc1cc(-c2cc(NCCc3ccc4ccccc4c3C)ncn2)ccc1Cc1noc(=O)[nH]1` [Example 566, 3-(2-Ethoxy-4-{6-[2-(1-methyl-naphthalen-2-yl)-ethylamino]-pyrimidin-4-yl}-benzyl)-[1,2,4]oxadiazol-5(4H)-one], the IC50 was determined as 0.297 µM at PTGER2 (EP2) and 0.159 µM on PTGER4 (EP4).

With `CCCc1cc(-c2cc(NCCc3cc4ccsc4cc3OC)ncn2)ccc1C(=O)O` [Example 377, 4-{6-[2-(6-Methoxy-benzo[b]thiophen-5-yl)-ethylamino]-pyrimidin-4-yl}-2-propyl-benzoic acid], the IC50 was found to be 0.008 µM on PTGER2 (EP2) and 0.068 µM against PTGER4 (EP4).

Consider `CCOc1cc(-c2cc(NCCc3cc(C)c4sccc4c3)ncn2)ccc1C(=O)O` [Example 476, 2-Ethoxy-4-{6-[2-(7-methyl-benzo[b]thiophen-5-yl)-ethylamino]-pyrimidin-4-yl}-benzoic acid], for which the IC50 was 0.428 µM at PTGER2 (EP2) and 0.264 µM on PTGER4 (EP4).

For the compound `O=C(O)c1cccc2cc(-c3cc(NCCc4cc(F)c5sccc5c4)ncn3)[nH]c12` [Example 561, 2-{6-[2-(7-Fluoro-benzo[b]thiophen-5-yl)-ethylamino]-pyrimidin-4-yl}-1H-indole-7-carboxylic acid], the results for the IC50 at PTGER2 (EP2) and against PTGER4 (EP4) were 0.388 µM and 0.103 µM, respectively.

`CCOc1cc2c(cc1CCNc1cc(-c3ccc(CC(=O)O)c(CC)c3)ncn1)OCCO2` [Example 512, (4-{6-[2-(7-Ethoxy-2,3-dihydro-benzo[1,4]dioxin-6-yl)-ethylamino]-pyrimidin-4-yl}-2-ethyl-phenyl)-acetic acid]: the results for the 50% inhibitory concentration (IC50) on PTGER2 (EP2) and against PTGER4 (EP4) were 0.067 µM and 0.22 µM, respectively.

`O=C(O)c1cccc2[nH]c(-c3cc(NCCc4cc(F)c5sccc5c4)ncn3)cc12` [Example 531, 2-{6-[2-(7-Fluoro-benzo[b]thiophen-5-yl)-ethylamino]-pyrimidin-4-yl}-1H-indole-4-carboxylic acid]: the results for the IC50 at PTGER2 (EP2) and on PTGER4 (EP4) were 0.624 µM and 0.11 µM, respectively.

Consider `CCCc1cc(-c2cc(NCCc3cc(F)c4sccc4c3)ncn2)ccc1C(=O)NCC(C)(C)O` [Example 459, 4-{6-[2-(7-Fluoro-benzo[b]thiophen-5-yl)-ethylamino]-pyrimidin-4-yl}-N-(2-hydroxy-2-methyl-propyl)-2-propyl-benzamide], for which the figures for the IC50 on PTGER2 (EP2) and against PTGER4 (EP4) were 0.683 µM and 0.236 µM, respectively.

Take `CCOc1cc2c(cc1CCNc1cc(-c3ccc(CC(=O)O)c(OC(F)(F)F)c3)ncn1)OCCO2` [Example 427, (4-{6-[2-(7-Ethoxy-2,3-dihydro-benzo[1,4]dioxin-6-yl)-ethylamino]-pyrimidin-4-yl}-2-trifluoromethoxy-phenyl)-acetic acid]: the half-inhibitory concentration (IC50) came out at 0.017 µM at PTGER2 (EP2) and 0.09 µM against PTGER4 (EP4).

Take `O=C(O)c1ccc(-c2cc(NCCc3cc(F)c4sccc4c3)ncn2)cc1F` [Example 554, 2-Fluoro-4-{6-[2-(7-fluoro-benzo[b]thiophen-5-yl)-ethylamino]-pyrimidin-4-yl}-benzoic acid]: the half-maximal inhibitory concentration (IC50) worked out at 0.739 µM on PTGER2 (EP2) and 0.884 µM against PTGER4 (EP4).

Turning to `COc1cc(-c2cc(NCCc3cc4ccsc4c(F)c3OC)ncn2)ccc1CC(=O)O` [Example 485, (4-{6-[2-(7-Fluoro-6-methoxy-benzo[b]thiophen-5-yl)-ethylamino]-pyrimidin-4-yl}-2-methoxy-phenyl)-acetic acid], the IC50 at PTGER2 (EP2) turned out to be 0.125 µM; against PTGER4 (EP4) it was 0.122 µM.

For the compound `CCOc1c(C(=O)O)ccc(-c2cc(NCCc3cc(F)c4sccc4c3)ncn2)c1F` [Example 552, 2-Ethoxy-3-fluoro-4-{6-[2-(7-fluoro-benzo[b]thiophen-5-yl)-ethylamino]-pyrimidin-4-yl}-benzoic acid], the IC50 at PTGER2 (EP2) was 0.577 µM; against PTGER4 (EP4), 0.385 µM.

As for `CCc1cc(-c2cc(NCCc3cc(F)c4sccc4c3)ncn2)sc1CC(=O)O` [Example 545, (3-Ethyl-5-{6-[2-(7-fluoro-benzo[b]thiophen-5-yl)-ethylamino]-pyrimidin-4-yl}-thiophen-2-yl)-acetic acid], the IC50 amounted to 0.394 µM on PTGER2 (EP2) and 0.025 µM against PTGER4 (EP4).

For the compound `O=C(O)c1coc2cc(-c3cc(NCCc4cc(F)c5sccc5c4)ncn3)ccc12` [Example 549, 6-{6-[2-(7-Fluoro-benzo[b]thiophen-5-yl)-ethylamino]-pyrimidin-4-yl}-benzofuran-3-carboxylic acid], the values for the 50% inhibitory concentration (IC50) at PTGER2 (EP2) and against PTGER4 (EP4) were 0.56 µM and 0.19 µM, respectively.

As to `CCCc1cc(-c2cc(NCCc3cc(F)c4sccc4c3)ncn2)ccc1C(=O)NC` [Example 458, 4-{6-[2-(7-Fluoro-benzo[b]thiophen-5-yl)-ethylamino]-pyrimidin-4-yl}-N-methyl-2-propyl-benzamide], the IC50 at PTGER2 (EP2) stood at 0.55 µM; against PTGER4 (EP4), 0.104 µM.

Regarding `CCCc1cc(-c2cc(NCCc3ccc4sccc4c3F)ncn2)ccc1C(=O)O` [Example 378, 4-{6-[2-(4-Fluoro-benzo[b]thiophen-5-yl)-ethylamino]-pyrimidin-4-yl}-2-propyl-benzoic acid], the IC50 worked out at 0.02 µM at PTGER2 (EP2) and 0.036 µM against PTGER4 (EP4).

As to `CCCOc1cc(-c2cc(NCCc3cc4c(cc3OC)OCCO4)ncn2)ccc1CC(=O)O` [Example 480, (4-{6-[2-(7-Methoxy-2,3-dihydro-benzo[1,4]dioxin-6-yl)-ethylamino]-pyrimidin-4-yl}-2-propoxy-phenyl)-acetic acid], the IC50 is 0.17 µM at PTGER2 (EP2) and 0.207 µM at PTGER4 (EP4).
